# Legend:
# ECHCO = assay: Postemergence foliar-applied greenhouse weed control, direct-seeded rice system; assay type: in vivo, Echinochloa colona (L.) Link
# Description: (§1) Seeds or nutlets of the desired test plant species were planted in a soil matrix prepared by mixing a loam or sandy loam soil (e.g., 28.6 percent silt, 18.8 percent clay, and 52.6 percent sand, with a pH of about 5.8 and an organic matter content of about 1.8 percent) and calcareous grit in an 80 to 20 ratio. The soil matrix was contained in plastic pots with a volume of 1 quart and a surface area of 83.6 square centimeters (cm^2). When required to ensure good germination and healthy plants, a fungicide treatment and/or other chemical or physical treatment was applied. The plants were grown for 8-22 days in a greenhouse with an approximate 14 h photoperiod which was maintained at about 29° C. during the day and 26° C. during the night. Nutrients (Peters Excel® 15-5-15 5-Ca 2-Mg and iron chelate) were applied in the irrigation solution as needed and water was added on a regular basis. Supplemental lighting was provided with overhead metal halide 1000-Watt lamps as necessary. The plants were employed for testing when they reached the first through fourth true leaf stage.
# (§2) Treatments consisted of the acid or esters of 4-amino-3-chloro-5-fluoro-6-(4-chloro-2-fluoro-3-methoxy-phenyl)pyridine-2-carboxylic acid (Compound A), each formulated as an SC (suspension concentrate), and various herbicidal components alone and in combination. Forms of compound A were applied on an acid equivalent basis.
# (§3) Other herbicidal components were applied on an active ingredient basis and included diamuron formulated as an EC (emulsifiable concentrate) and oxaziclomefone (technical grade material).
# (§4) Treatment requirements were calculated based upon the rates being tested, the concentration of active ingredient or acid equivalent in the formulation, and a 12 mL application volume at a rate of 187 L/ha.
# (§5) For treatments comprised of formulated compounds, measured amounts of compounds were placed individually in 25 mL glass vials and diluted in a volume of 1.25% (v/v) Agri-Dex® crop oil concentrated to obtain 12× stock solutions. […] Application solutions were prepared by adding an appropriate amount of each stock solution (e.g., 1 mL) and diluted to the appropriate final concentrations with the addition of 10 mL of an aqueous mixture of 1.25% (v/v) crop oil concentrate so that the final spray solutions contained 1.25+/−0.05% (v/v) crop oil concentrate.
# (§6) For treatments comprised of technical compounds, weighed amounts can be placed individually in 25 mL glass vials and dissolved in a volume of 97:3 v/v acetone/DMSO to obtain 12× stock solutions. […] Application solutions can be prepared by adding an appropriate amount of each stock solution (e.g., 1 mL) and diluted to the appropriate final concentrations with the addition of 10 mL of an aqueous mixture of 1.5% (v/v) crop oil concentrate so that the final spray solutions contain 1.25% (v/v) crop oil concentrate. When technical materials are used, the concentrated stock solutions can be added to the spray solutions so that the final acetone and DMSO concentrations of the application solutions are 16.2% and 0.5%, respectively.
# (§7) For treatments comprised of formulated and technical compounds, weighed amounts of the technical materials were placed individually in 25 mL glass vials and dissolved in a volume of 97:3 v/v acetone/DMSO to obtain 12× stock solutions, and measured amounts of the formulated compounds were placed individually in 25 mL glass vials and diluted in a volume of 1.5% (v/v) crop oil concentrate or water to obtain 12× stock solutions. […] Application solutions were prepared by adding an appropriate amount of each stock solution (e.g., 1 mL) and diluted to the appropriate final concentrations with the addition of an appropriate amount of an aqueous mixture of 1.5% (v/v) crop oil concentrate so that the final spray solutions contained 1.25% (v/v) crop oil concentrate. […]
# IPOHE = assay: as above; assay type: in vivo, Ipomoea hederacea Jacq.
# Description: as §1, §2, §3, §4, §5, §6, §7
# [1] = Compound A Benzyl Ester 4.38 gae/ha alone
# [2] = Compound A Benzyl Ester 8.75 gae/ha alone
structure (smiles),measurement,setting,value
COc1c(Cl)ccc(-c2nc(C(=O)OCc3ccccc3)c(Cl)c(N)c2F)c1F [Compound A Benzyl Ester],Visual Weed Control (%) - 20 DAA ECHCO Obs,ECHCO; [1],40%
same,Visual Weed Control (%) - 20 DAA ECHCO Obs,ECHCO; [2],90%
same,Visual Weed Control (%) - 20 DAA IPOHE Obs,IPOHE; [1],10%
same,Visual Weed Control (%) - 20 DAA IPOHE Obs,IPOHE; [2],25%
same,Visual Weed Control (%) - 20 DAA IPOHE Obs,IPOHE; Compound A Benzyl Ester 17.5 gae/ha alone,50%
